From patent US20250025438A1, “Derivative of aspartic acid and use thereof in treatment of metabolic diseases such as hepatic fibrosis and non-alcoholic hepatitis” (SHENZHEN JINGTAI TECHNOLOGY CO., LTD., priority 2021, published 2025) come the findings set out here.

Where a SMILES comes first, the peptide text is derived from it.

What all share (type): cell-based
One assay relates to IL-1β. The experiment in a line: In vitro efficacy in semi-activated LX2 cells, qPCR: IL-1β. The settings on record: 48 hours, Q-PCR; for inhibition at 50 µM: Homo sapiens, LX-2, 50 µM, read-out: IL-1β mRNA inhibition rate. The method, then: (§1) Test compounds were added to the LX-2 cells respectively, and total RNA in the cells was extracted 48 hours later. This experiment was performed strictly in accordance with the instructions of the Total RNA Kit. The steps were as follows (note: this experiment was performed on ice throughout the entire process, and special RNase-free tips were used throughout the entire process): • 1) The 12-well cell culture plate was taken out from the incubator, the cell culture medium was discarded, the cells were washed twice with 1 mL of 1×PBS, and a negative pressure suction device was used to fully remove PBS; • 2) 350 μL of TRK Lysis Buffer mixture/well was prepared as needed (mixture preparation method: 1 mL of TRKLysis Buffer+20 μL of β-mercaptoethanol), vortexed and mixed well. 350 μL was added to each well of the 12-well cell culture plate, and allowed to stand at room temperature for 5 minutes to fully lyse the cells; • 3) 70% ethanol/well was prepared as needed, vortexed and mixed well. 350 μL was added to each well of the 12-well cell culture plate, mixed well by shaking, and transferred to the spin column (spin column+collection tube were assembled); • 4) Centrifugation was performed at 4° C., 12000 g for 60 sec. The waste liquid was discarded after centrifugation, while the spin column was kept; • 5) 500 μL of RNA Wash Buffer I was added, centrifuged at 4° C., 12000 g for 60 sec, the waste liquid was discarded after centrifugation, and the collection column was kept; • 6) 500 μL of RNA Wash Buffer II (confirmed that ethanol had been added) was added, centrifuged at 4° C., 12000 g for 60 sec, the waste liquid was discarded after centrifugation, and the collection column was kept; • 7) step 6) was repeated once again, centrifugation was performed at 4° C., 12000 g for 90 sec, the waste liquid was discarded after centrifugation, and the collection column was kept; • 8) Centrifugation was performed at 4° C., 12000 g for 120 sec to ensure that the spin column was fully dried; • 9) The dried spin column was inserted into a new 1.5 mL EP tube, and 30 μL of DEPC water was added to the membrane in the center of the spin column. It should be careful not to touch the EP tube cover in this step. It was allowed to stand at room temperature for 5 minutes to ensure that the RNA was fully dissolved in DEPC water. Centrifugation was performed at 4° C., 12000 g for 60 sec, and the EP tube was kept; • 10) NanoDrop ultra-micro-volume spectrophotometer was used to detect RNA concentration;
(§2) 5.2 Reverse transcription of RNA into cDNA: According to the instructions of PrimeScript™ RT reagent Kit (Perfect Real Time), the specific experimental steps were as follows:
(§3) 5.3 Q-PCR detection of target gene expression: According to the instructions of Power SYBR® Green PCR Master Mix, the specific operations were as follows:
(§4) After the reaction was completed, the amplification curve and dissolution curve of Q-PCR were confirmed, and the relative quantification method ([…]) was used to perform data analysis on the experimental results.
(§5) LX2 cells were passaged and plated normally. […] After 48 hours, the cells were collected, total RNA was extracted, and Q-PCR was used to detect the changes in the mRNA expression levels of liver fibrosis-related genes (ACTA2 encoding α-SMA, COL1A1 and COLIA2 encoding collagen I, COL3A1 encoding collagen III, SMAD3 encoding Smad3) and inflammation-related genes (IL1β encoding IL-1β, TNFα encoding TNFα) (for specific methods, see 5. Q-PCR detection of target gene expression as described above). α-SMA was a marker of hepatic stellate cell activation, and collagen I and collagen III were the main components of extracellular matrix deposition.

For the next assay, the system named is COL1A1. The experiment in a line: In vitro efficacy in semi-activated LX2 cells, qPCR: COL1A1. The settings on record: 48 hours, Q-PCR; for inhibition at 50 µM: Homo sapiens, LX-2, 50 µM, read-out: COL1A1 mRNA inhibition rate; for COL1A1 mRNA inhibition rate: 50 µM. As for the experimental part:
as §1, §2, §3, §4, §5

A further assay has as its system COL3A1. The experiment in a line: In vitro efficacy in semi-activated LX2 cells, qPCR: COL3A1. Particulars: 48 hours, Q-PCR; for inhibition at 50 µM: Homo sapiens, LX-2, 50 µM, read-out: COL3A1 mRNA inhibition rate; for COL3A1 mRNA inhibition rate: 50 µM. The method, then: as §1, §2, §3, §4, §5
Another assay concerns α-SMA. The experiment in a line: In vitro efficacy in semi-activated LX2 cells, qPCR: α-SMA. The settings on record: 50 µM, 48 hours, Q-PCR, read-out: α-SMA mRNA inhibition rate. As for the experimental part:
as §1, §2, §3, §4, §5

A further assay relates to Smad3. The experiment in a line: In vitro efficacy in semi-activated LX2 cells, qPCR: Smad3. Particulars: 48 hours, Q-PCR; for inhibition at 50 µM: Homo sapiens, LX-2, 50 µM, read-out: Smad3 mRNA inhibition rate; for inhibition of the expression of Smad3 at the mRNA level: Table 2. As for the experimental part: as §1, §2, §3, §4, §5
Assay [1] concerns collagen I and collagen III. The experiment in a line: Semi-activated LX2 cells, qPCR: collagen I and collagen III at the mRNA level. The settings on record: 48 hours, Q-PCR, Table 2. As for the experimental part: as §1, §3
LX2 cells were passaged and plated normally. After adherent growth for 12 hours, 50 µM of the test compound was added. After 48 hours, the cells were collected, total RNA was extracted, and Q-PCR was used to detect the changes in the mRNA expression levels of liver fibrosis-related genes (ACTA2 encoding α-SMA, COL1A1 and COLIA2 encoding collagen I, COL3A1 encoding collagen III, SMAD3 encoding Smad3) and inflammation-related genes (IL1β encoding IL-1β, TNFα encoding TNFα) (for specific methods, see 5. Q-PCR detection of target gene expression as described above). α-SMA was a marker of hepatic stellate cell activation, and collagen I and collagen III were the main components of extracellular matrix deposition. […]

A further assay deals with TNF-α. The experiment in a line: In vitro efficacy in semi-activated LX2 cells, qPCR: TNF-α. The settings on record: Q-PCR; for inhibition at 50 µM: Homo sapiens, LX-2, 48 hours, read-out: TNF-α mRNA inhibition rate. The method, then: as §1, §2, §3, §4
LX2 cells were passaged and plated normally. After adherent growth for 12 hours, 50 µM of the test compound was added. After 48 hours, the cells were collected, total RNA was extracted, and Q-PCR was used to detect the changes in the mRNA expression levels of liver fibrosis-related genes (ACTA2 encoding α-SMA, COL1A1 and COLIA2 encoding collagen I, COL3A1 encoding collagen III, SMAD3 encoding Smad3) and inflammation-related genes (IL1β encoding IL-1β, TNFα encoding TNFα) (for specific methods, see 5. Q-PCR detection of target gene expression as described above). α-SMA was a marker of hepatic stellate cell activation, and collagen I and collagen III were the main components of extracellular matrix deposition.

For the molecule `COC(=O)[C@H](CC(=O)O)NC(=O)OCC1c2ccccc2-c2ccccc21` [Compound 5], the inhibition at 50 µM with IL-1β fell in the range of 1 to 10%.

As for `CC(C)(C)OC(=O)N[C@@H](CC(=O)O)C(=O)OCc1ccccc1` [Compound 21], the inhibition at 50 µM with COL1A1 lay within 1 to 10%; with COL3A1, 10 to 25%; in the assay on α-SMA, 1 to 10%; in the assay with Smad3, 1 to 10%. Also, the “inhibition of the expression of collagen I and collagen III at the mRNA level” value in assay [1] was “could inhibit”.

Regarding `N[C@@H](CC(=O)NCC(=O)O)C(=O)O` [Compound 34], the inhibition at 50 µM in the assay on COL3A1, in the assay on α-SMA, with Smad3, in the assay on IL-1β and in the assay with TNF-α was 1 to 10% in each case.

Consider `CC(C)OC(=O)C[C@H](N)C(=O)O` [Compound 36, 4-isopropyl L-aspartic acid ester], for which the inhibition at 50 µM in the assay with COL3A1, in the assay on α-SMA, in the assay with Smad3 and in the assay on TNF-α was 1 to 10% each time.

Regarding `COC(=O)C[C@H](N)C(=O)OC(C)(C)C.Cl` [Compound 44], the “COL1A1 mRNA inhibition rate” value with COL1A1 is on record as “D (D represented that the inhibition rate was 10% to 25%)”. In addition, the “COL3A1 mRNA inhibition rate” value with COL3A1 is recorded as “E (E represented that the inhibition rate was 1% to 10%)”. Further, the “IL-1β mRNA inhibition rate” value in the assay on IL-1β (50 µM) was “E (E represented that the inhibition rate was 1% to 10%)”. Moreover, the “inhibition of the expression of collagen I and collagen III at the mRNA level” value in assay [1] is recorded as “could inhibit”.

Take `CC(=O)N[C@@H](CC(=O)OC(C)(C)C)C(=O)O` [Compound 31]: the inhibition at 50 µM in the assay with COL1A1, with α-SMA and in the assay with IL-1β was 1 to 10% throughout.

`CC(C)(C)OC(=O)N[C@@H](CC(=O)O)C(=O)O` [Compound 1]: the inhibition at 50 µM with COL1A1 was in the range of 1 to 10%; in the assay with α-SMA it was 1 to 10%; with Smad3 it was 10 to 25%; in the assay with TNF-α, 1 to 10%. Further, the “inhibition of the expression of Smad3 at the mRNA level” value (“inhibition of the expression of Smad3” below) with Smad3 is listed as “could inhibit”.

With `C=CCOC(=O)C[C@H](NC(=O)OCC1c2ccccc2-c2ccccc21)C(=O)O` [Compound 11], the inhibition at 50 µM was in the range of 1 to 10% with Smad3, 25 to 50% in the assay with IL-1β and 1 to 10% in the assay with TNF-α.

For the molecule `O=C(O)C[C@H](NC(=O)[C@@H]1CCCN1)C(=O)O` [Compound 40] (H-Pro-Asp-OH), the inhibition at 50 µM with COL1A1 is 25 to 50%; in the assay with COL3A1, 25 to 50%; with Smad3, 1 to 10%; with IL-1β it was 1 to 10%; in the assay on TNF-α, 1 to 10%. Moreover, in assay [1], the “inhibition of the expression of collagen I and collagen III at the mRNA level” value is “could inhibit”.

Regarding `COC(=O)C[C@H](NC(=O)OCC1c2ccccc2-c2ccccc21)C(=O)O` [Compound 9], the inhibition at 50 µM fell in the range of 1 to 10% in the assay on α-SMA, 10 to 25% with Smad3 and 25 to 50% in the assay with IL-1β. In the assay with Smad3, the “inhibition of the expression of Smad3” value was “could inhibit”.

With `CC(C)C(=O)N[C@@H](CC(=O)O)C(=O)O` [Compound 59, isobutyryl-L-aspartic acid], the figures for the inhibition at 50 µM with COL1A1, with α-SMA and in the assay on TNF-α were 10 to 25%, 1 to 10% and 1 to 10%, respectively. In addition, the “inhibition of the expression of collagen I and collagen III at the mRNA level” value in assay [1] is “could inhibit”.

As to `COC(=O)C[C@H](N)C(=O)OC.Cl` [Compound 7], the “IL-1β mRNA inhibition rate” value with IL-1β (test concentration 25 μM) is given as “E (E represented that the inhibition rate was 1% to 10%)”.

On to `COC(=O)C[C@H](NC(=O)OC(C)(C)C)C(=O)O` [Compound 8], for which the inhibition at 50 µM in the assay on COL1A1 lay in the range of 10 to 25%; in the assay on COL3A1, 10 to 25%; in the assay on Smad3 it was 1 to 10%; in the assay with IL-1β, 1 to 10%. For the same molecule, in assay [1], the “inhibition of the expression of collagen I and collagen III at the mRNA level” value is “could inhibit”.

For `CC(C)(C)OC(=O)C[C@H](NC(=O)OCc1ccccc1)C(=O)O` [Compound 16], the inhibition at 50 µM in the assay on COL1A1 and in the assay on TNF-α was 1 to 10% throughout.

As for `CC(C)(C)OC(=O)[C@@H](N)CC(=O)OCc1ccccc1.Cl` [Compound 42], the “COL1A1 mRNA inhibition rate” value with COL1A1 was “C (C represented that the inhibition rate was 25% to 50%)”. Besides, the “COL3A1 mRNA inhibition rate” value in the assay on COL3A1 is on record as “E (E represented that the inhibition rate was 1% to 10%)”. Further, the “Smad3 mRNA inhibition rate” value in the assay with Smad3 (50 µM) is given as “E (E represented that the inhibition rate was 1% to 10%)”. In addition, the “IL-1β mRNA inhibition rate” value in the assay with IL-1β (50 µM) is reported as “E (E represented that the inhibition rate was 1% to 10%)”. Moreover, the “TNF-α mRNA inhibition rate” value in the assay on TNF-α (50 µM, 48 hours) is recorded as “D (D represented that the inhibition rate was 10% to 25%)”. The “inhibition of the expression of collagen I and collagen III at the mRNA level” value in assay [1] is given as “could inhibit”.

Take `CC(C)(C)OC(=O)C[C@H](NC(=O)OC(C)(C)C)C(=O)O` [Compound 17]: the inhibition at 50 µM lay within 1 to 10% in the assay with COL1A1, 1 to 10% with α-SMA, 1 to 10% in the assay on Smad3 and 10 to 25% in the assay with TNF-α.

On to `COC(=O)[C@@H](N)CC(=O)OC(C)(C)C` [Compound 15], for which the inhibition at 50 µM in the assay with COL1A1 was 10 to 25%; in the assay on COL3A1 it was 10 to 25%; with α-SMA it was 1 to 10%; in the assay with Smad3, 10 to 25%; in the assay with TNF-α, 1 to 10%. The “inhibition of the expression of Smad3” value in the assay on Smad3 is listed as “could inhibit”. Also, the “inhibition of the expression of collagen I and collagen III at the mRNA level” value in assay [1] is “could inhibit”.

Regarding `CN(C)C(=O)N[C@@H](CC(=O)O)C(=O)O` [Compound 62, (dimethylcarbamoyl)-L-aspartic acid], the inhibition at 50 µM in the assay on COL1A1, in the assay on α-SMA, with Smad3, in the assay on IL-1β and in the assay with TNF-α was 1 to 10% throughout.

`CC(C)(C)OC(=O)[C@@H](N)CC(=O)O` [Compound 14]: the inhibition at 50 µM is 10 to 25% in the assay with COL1A1, 1 to 10% in the assay with COL3A1 and 1 to 10% with TNF-α. Besides, the “inhibition of the expression of collagen I and collagen III at the mRNA level” value in assay [1] is reported as “could inhibit”.
